Data published in patent US6685617B1, “Inhibitors of α4β1 mediated cell adhesion” (Pharmacia & Upjohn Company, priority 1998, dated 2004).
pIC50: −log10 of the molar value. Structures can show the parent of a compound that is named as a salt.

Legend:
[1] = target: T1, α4β1 integrin (Jurkat T-cell adhesion to IL-1 stimulated endothelial cell monolayers) (Homo sapiens, UniProt P05556+P13612); experiment: Jurkat-endothelial cell adhesion assay (Jurkat EC); assay type: cell-based; conditions: Jurkat cells on IL-1 stimulated human umbilical vein endothelial cells; read-out: JK/EC (Jurkat EC Assay IC50 value range)
T1 construct: a T-cell line, Jurkat, known to express the α4β1 integrin; host or cells: Jurkat T-cell line
Method in brief: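 Adhesion was expressed as percent of compound-free fluorescence after 20 min at 37° C (following 5 min settling on ice) of BCECF-loaded Jurkat T cells on washed HUVEC monolayers. The endothelium, passage 6 or lower, had received 0.1 ng/ml recombinant IL-1 for 4 hr at 37° C; compound was premixed with the T cells, typically at 100, 20, 5 and 1.25 μM.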

[2] = target: T2, α4β1 integrin (Jurkat cell adhesion to immobilized CS-1 derived peptide CLHPGEILDVPST) (Homo sapiens, UniProt P05556+P13612); experiment: Jurkat-CS-1 assay; assay type: cell-based; conditions: Jurkat cells on CS-1 peptide coated plates; read-out: JK/CS-1 (Jurkat CS-1 Assay IC50 value range)
T2 construct: 100 μl of Jurkat cells (2.5×10^6 cells/ml) in DMEM plus BSA; host or cells: Jurkat T-cell line
Method in brief: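 CS-1 peptide was SPDP-crosslinked onto HSA-coated plates and blocked with BSA. Jurkat cells (2.5×10^6 cells/ml) in DMEM/BSA were mixed with compound, generally at 100, 20, 5 and 1.25 μM, and allowed to adhere for 1 hr at 37° C. Bound cells were fixed, stained with toluidine blue and quantified by OD590.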

T2 sequence (P13612 34-1032): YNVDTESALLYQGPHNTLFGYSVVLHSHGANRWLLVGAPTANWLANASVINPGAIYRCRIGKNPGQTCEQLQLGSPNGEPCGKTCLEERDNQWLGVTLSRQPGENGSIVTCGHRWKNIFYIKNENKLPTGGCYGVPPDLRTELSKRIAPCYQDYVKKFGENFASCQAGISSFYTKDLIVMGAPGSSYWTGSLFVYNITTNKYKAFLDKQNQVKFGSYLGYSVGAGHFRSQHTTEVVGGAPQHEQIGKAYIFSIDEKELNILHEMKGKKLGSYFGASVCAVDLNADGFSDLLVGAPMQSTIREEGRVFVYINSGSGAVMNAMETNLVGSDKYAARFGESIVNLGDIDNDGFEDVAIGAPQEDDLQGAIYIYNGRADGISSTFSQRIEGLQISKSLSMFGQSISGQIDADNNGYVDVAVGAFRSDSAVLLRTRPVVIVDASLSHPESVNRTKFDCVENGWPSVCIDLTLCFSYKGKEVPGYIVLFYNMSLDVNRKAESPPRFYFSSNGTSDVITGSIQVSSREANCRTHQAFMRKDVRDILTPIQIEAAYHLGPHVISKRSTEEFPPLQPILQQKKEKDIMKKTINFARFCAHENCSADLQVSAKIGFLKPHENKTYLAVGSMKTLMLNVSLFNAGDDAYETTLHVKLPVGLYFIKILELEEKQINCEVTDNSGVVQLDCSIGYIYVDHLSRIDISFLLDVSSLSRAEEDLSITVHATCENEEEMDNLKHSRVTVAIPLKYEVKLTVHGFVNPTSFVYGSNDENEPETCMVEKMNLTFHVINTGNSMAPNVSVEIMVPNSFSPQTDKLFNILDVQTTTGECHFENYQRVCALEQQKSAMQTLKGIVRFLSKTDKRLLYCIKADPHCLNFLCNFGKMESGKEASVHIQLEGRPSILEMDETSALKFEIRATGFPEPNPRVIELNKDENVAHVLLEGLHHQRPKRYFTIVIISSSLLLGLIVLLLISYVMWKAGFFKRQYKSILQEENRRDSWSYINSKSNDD
T2 sequence (P05556 21-798): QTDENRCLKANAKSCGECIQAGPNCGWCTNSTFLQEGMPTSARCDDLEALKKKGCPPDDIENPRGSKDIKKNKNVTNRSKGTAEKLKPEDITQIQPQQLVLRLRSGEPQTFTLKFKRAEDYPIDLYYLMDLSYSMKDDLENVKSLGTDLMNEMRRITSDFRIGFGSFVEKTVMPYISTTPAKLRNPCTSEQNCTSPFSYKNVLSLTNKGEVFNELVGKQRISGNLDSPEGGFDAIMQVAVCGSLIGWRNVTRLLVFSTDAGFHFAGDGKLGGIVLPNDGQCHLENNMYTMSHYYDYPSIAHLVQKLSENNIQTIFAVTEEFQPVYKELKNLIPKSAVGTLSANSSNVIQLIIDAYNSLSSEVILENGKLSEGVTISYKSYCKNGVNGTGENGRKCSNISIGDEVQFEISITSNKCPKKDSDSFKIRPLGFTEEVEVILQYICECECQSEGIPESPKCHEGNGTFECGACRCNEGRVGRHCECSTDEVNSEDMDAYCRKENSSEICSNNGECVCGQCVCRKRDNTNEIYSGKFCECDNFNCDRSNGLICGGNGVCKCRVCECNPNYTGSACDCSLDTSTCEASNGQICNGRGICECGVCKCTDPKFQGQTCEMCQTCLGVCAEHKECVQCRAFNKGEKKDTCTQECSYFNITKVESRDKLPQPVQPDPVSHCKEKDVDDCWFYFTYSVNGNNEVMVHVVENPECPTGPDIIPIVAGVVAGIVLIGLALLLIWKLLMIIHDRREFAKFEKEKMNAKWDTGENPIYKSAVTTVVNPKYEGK
T1 sequence (P13612 34-1032): as the sequence (P13612 34-1032) above
T1 sequence (P05556 21-798): as the sequence (P05556 21-798) above

Compound | melting point | pIC50 [1] | pIC50 [2]
C[C@@H](c1ccccc1)N1[C@H](C(=O)O)C[C@H]1C(=O)N[C@@H](Cc1ccc(NC(=O)c2c(Cl)cccc2Cl)cc1)C(=O)O (as salt: salt) [Example 129, [2S-[1(R*),2α,4β(R*)]]-4-[[[1-Carboxy-2-[4-[(2,6-dichlorobenzoyl)amino]phenyl]ethyl]-amino]carbonyl]-1-(1-phenylethyl)-2-azetidinecarboxylic Acid Dilithium Salt] | 270 °C |  | 
CCOC(=O)N1CSC[C@@H]1C(=O)N[C@@H](Cc1ccc(NC(=O)c2c(Cl)cccc2Cl)cc1)C(=O)O (relative stereo) [Example 12, [S-(R*,R*)]-4-[[[1-Carboxy-2-[4-[(2,6-dichlorobenzoyl)amino]phenyl]ethyl]amino]carbonyl]-3-thiazolidinecarboxylic Acid 3-Ethyl Ester] | 118 to 121 °C | ≥ 6.60 | ≥ 7.30
COC(=O)[C@H](Cc1ccc(OCc2c(Cl)cccc2Cl)cc1)NC(=O)[C@H]1CSCN1C(=O)OCCN1CCOCC1 (relative stereo) [Example 36, [S-(R*,R*)]-4-[[[1-[4-[(2,6-Dichlorophenyl)methoxy]phenyl]methyl]-2-methoxy-2-oxoethyl]amino]carbonyl]-3-thiazolidinecarboxylic Acid 3-[2-(4-Morpholinyl)ethyl]ester] | 138 to 140 °C | ≥ 6.60 | ≥ 7.30
COC(=O)[C@H](Cc1ccc(OCc2c(Cl)cccc2Cl)cc1)NC(=O)[C@H]1CSCN1C(=O)OCc1ccccn1 (relative stereo) [Example 38, [S-(R*,R*)]-4-[[[1-[4-[(2,6-Dichlorophenyl)methoxy]phenyl]methyl]-2-methoxy-2-oxoethyl]amino]carbonyl]-3-thiazolidinecarboxylic Acid 3-[(2-Pyridinyl)methyl]ester] | 123 to 125 °C | ≤ 6.00 | ≤ 6.12
COC(=O)[C@H](Cc1ccc(OCc2c(Cl)cccc2Cl)cc1)NC(=O)[C@H]1CSCN1C(=O)OCCN1CCCC1 (relative stereo) [Example 39, [S-(R*,R*)]-4-[[[1-[4-[(2,6-Dichlorophenyl)methoxy]phenyl]methyl]-2-methoxy-2-oxoethyl]amino]carbonyl]-3-thiazolidinecarboxylic Acid 3-[2-(1-Pyrrolidinyl)ethyl]ester] | 130 to 132 °C | ≥ 6.60 | 6.12 to 7.30
CN(CCc1ccccn1)C(=O)N1CSC[C@@H]1C(=O)N[C@@H](Cc1ccc(OCc2c(Cl)cccc2Cl)cc1)C(=O)O (relative stereo) [Example 153, [S-(R*,R*)]-4-[[[1-Carboxy-2-[4-[(2,6-dichlorophenyl)methoxy]phenyl]ethyl]amino]-carbonyl]-N-methyl-N-[2-(2-pyridinyl)ethyl]-3-thiazolidinecarboxamide] | 80 °C | ≤ 6.00 | ≤ 6.12
COC(=O)[C@H](Cc1ccc(OCc2c(Cl)cccc2Cl)cc1)NC(=O)[C@H]1CSCN1C(=O)OC1CCOC1 (relative stereo) [Example 156, [S-(R*,R*)]-4-[[[1-[[4-[(2,6-Dichlorophenyl)methoxy]phenyl]methyl]-2-methoxy-2-oxoethyl]amino]carbonyl]-3-thiazolidinecarboxylic Acid 3-(3-Tetrahydrofuranyl)ester] | 125 to 126.5 °C | ≤ 6.00 | 6.12 to 7.30
COC(=O)[C@H](Cc1ccc(NC(=O)c2c(Cl)cccc2Cl)cc1)NC(=O)[C@H]1CSCN1C(=O)N(C)CCc1ccccn1 [Example 54, 4-[(2,6-Dichlorobenzoyl)amino]-N-[[(4S)-3-[[methyl[2-(2-pyridinyl)ethyl]amino]carbonyl]-4-thiazoidinyl]carbonyl]-L-phenylalanine Methyl Ester] | 80 to 90 °C (dec.) | ≤ 6.00 | 6.12 to 7.30
COC(=O)[C@H](Cc1ccc(NC(=O)c2c(Cl)cccc2Cl)cc1)NC(=O)[C@H]1CSCN1C(=O)N1CCOCC1 [Example 56, 4-[(2,6-Dichlorobenzoyl)amino]-N-[[(4S)-3-(4-morpholinylcarbonyl)-4-thiazolidinyl]carbonyl]-L-phenylalanine Methyl Ester] | 223 to 225 °C | ≤ 6.00 | 6.12 to 7.30
COC(=O)[C@H](Cc1ccc(NC(=O)c2c(Cl)cccc2Cl)cc1)NC(=O)[C@H]1CSCN1C(=O)N(CCO)CCO [Example 57, N-[[(4S)-3-[[bis(2-Hydroxyethyl)amino]carbonyl]-4-thiazolidinyl]carbonyl]-4-[(2,6-dichlorobenzoyl)amino]-L-phenylalanine Methyl Ester] | 105 to 107 °C | ≤ 6.00 | ≤ 6.12
CCOC(=O)N1[C@@H](C(=O)N[C@@H](Cc2ccc(NC(=O)c3c(Cl)cccc3Cl)cc2)C(=O)OC)C[C@@H]1C(=O)OC [Example 140, [2R-(2α,4β(S*)]-4-[[[1-[[4-[(2,6-Dichlorobenzoyl)amino]phenyl]methyl]-2-methoxy-2-oxoethyl]amino]carbonyl]-1,2-azetidinedicarboxylic Acid 1-Ethyl-2-methyl Diester] | 97 to 99 °C | ≤ 6.00 | ≤ 6.12
COC(=O)[C@H](Cc1ccc(NC(=O)c2c(Cl)cccc2Cl)cc1)NC(=O)[C@@H]1CCN1C(=O)OC(C)(C)C [Example 142, [2S-(R*,R*)]-2-[[[1-[4-[(2,6-Dichlorobenzoyl)amino]phenylmethyl]-2-methoxy-2-oxoethyl]amino]carbonyl]-1-azetidinecarboxylic Acid 1-(1,1-Dimethyl)ethyl Ester] | 106 to 108 °C | ≤ 6.00 | ≤ 6.12
O=C(O)c1cncc(C(=O)N2CSC[C@@H]2C(=O)N[C@@H](Cc2ccc(NC(=O)c3c(Cl)cccc3Cl)cc2)C(=O)O)c1 [Example 263] |  | 6.00 to 6.60 | 6.12 to 7.30
O=C(O)c1cccc(C(=O)N2CSC[C@@H]2C(=O)N[C@@H](Cc2ccc(NC(=O)c3c(Cl)cccc3Cl)cc2)C(=O)O)n1 [Example 264] |  | ≥ 6.60 | ≥ 7.30
O=C(Nc1ccc(C[C@H](NC(=O)[C@H]2CSCN2C(=O)c2cccnc2)C(=O)O)cc1)c1c(Cl)cccc1Cl [Example 265] |  | ≥ 6.60 | ≥ 7.30
O=C(Nc1ccc(C[C@H](NC(=O)[C@H]2CSCN2C(=O)C2CCCO2)C(=O)O)cc1)c1c(Cl)cccc1Cl (stereo partly drawn) [Example 266] |  | ≥ 6.60 | ≥ 7.30
O=C(O)CCC(=O)N1CCSCCC1C(=O)N[C@@H](Cc1ccc(NC(=O)c2c(Cl)cccc2Cl)cc1)C(=O)O (stereo partly drawn) [Example 267, 5-[[[(1S)-1-Carboxy-2-[4-[(2,6-dichlorobenzoyl)amino]phenyl]ethyl]amino]carbonyl]-tetrahydro-γ-oxo-1,4-thiazepine-4(5H)-butanoic Acid] |  | ≤ 6.00 | 6.12 to 7.30
[2R-[1(R*),2α,4β(S*)]]-4-[[[1-Carboxy-2-[4-[(2,6-dichlorobenzoyl)amino]phenyl]-ethyl]-amino]carbonyl]-1-(1-phenylethyl)-2-azetidinecarboxylic Acid Dilithium Salt [Example 135] |  | 6.00 to 6.60 | 6.12 to 7.30
[S]-3-[[[1-[[4-[(2,6-Dichlorobenzoyl)amino]phenyl]methyl]-2-methoxy-2-oxoethyl]amino]-carbonyl]-1-azetidinecarboxylic Acid 1-(1,1-Dimethyl)ethyl Ester [Example 145] |  | ≤ 6.00 | ≤ 6.12
